Results reported in patent US8993604B2, “Treatment and prevention of dengue virus infections” (Siga Technologies, Inc., priority 2009, dated 2015).

Test system: Dengue-2 (Strain New Guinea C)
Experiment: Viral yield assay in Vero cells
Format: cell-based
Settings: Dengue virus; Vero cells, MOI 0.1, harvested 48 hours post infection; read-out: Activity (anti-dengue 2 viral activity, EC50 class)
Description: Compounds that were active in the primary screen were tested for activity in viral yield assays. […] Vero cells in 12-well plates were infected with dengue-2 virus at a multiplicity of infection (MOI) of 0.1, treated with compound (or DMSO as a control), incubated at 37° C., harvested 48 hours post infection and titered on Vero cells as described above. The EC50 was calculated through ExcelFit. Activities against other serotypes of dengue virus were determined in a similar way.

Question: Which EC50 does the source give for Cc1ccccc1C(=O)Nc1cc(-c2nc3ccccc3s2)ccc1Cl [Compound 71, N-(5-Benzothiazol-2-yl-2-chloro-phenyl)-2-methyl-benzamide] here?
Answer: Its EC50 is > 25 µM.

Question: With O=C(Nc1ccc(O)c(-c2nc3ccccc3s2)c1)c1ccc2c(c1)OCCO2 [Compound 72, 2,3-Dihydro-benzo[1,4]dioxine-6-carboxylic acid (3-benzothiazol-2-yl-4-hydroxy-phenyl)-amide] as the molecule, how does the EC50 read?
Answer: The EC50 was > 25 µM.

Question: Which EC50 does the source give for Cc1c(NC(=O)c2ccc([N+](=O)[O-])cc2Cl)cccc1-c1nc2ccccc2s1 [Compound 73, N-(3-Benzothiazol-2-yl-2-methyl-phenyl)-2-chloro-4-nitro-benzamide] here?
Answer: Its EC50 is > 25 µM.

Question: Which EC50 does the source give for CCCOc1cccc(C(=O)Nc2cc(-c3nc4ccccc4s3)ccc2C)c1 [Compound 74, N-(5-Benzothiazol-2-yl-2-methyl-phenyl)-3-propoxy-benzamide] here?
Answer: The EC50 was > 25 µM.

Question: Which EC50 does the source give for Cc1ccc(-c2nc3ccccc3s2)cc1NC(=O)c1ccc2c(c1)OCCO2 [Compound 75, 2,3-Dihydro-benzo[1,4]dioxine-6-carboxylic acid (5-benzothiazol-2-yl-2-methyl-phenyl)-amide] here?
Answer: Its EC50 is > 25 µM.

Question: With O=C(Nc1ccc(-c2nc3ccccc3s2)cc1)c1cccc(F)c1 [Compound 76, N-(4-Benzothiazol-2-yl-phenyl)-3-fluoro-benzamide] as the molecule, how does the EC50 read?
Answer: The EC50 was > 25 µM.

Question: COc1c(Cl)cc(C(=O)Nc2cc(-c3nc4ccccc4s3)ccc2Cl)cc1Cl [Compound 77, N-(5-Benzothiazol-2-yl-2-chloro-phenyl)-3,5-dichloro-4-methoxy-benzamide] was tested. Which EC50 did it give?
Answer: Its EC50 is > 25 µM.

Question: How did the EC50 turn out when Cc1c(C(=O)Nc2ccc(-c3nc4ccccc4s3)c(O)c2)cccc1[N+](=O)[O-] [Compound 78, N-(4-Benzothiazol-2-yl-3-hydroxy-phenyl)-2-methyl-3-nitro-benzamide] was run?
Answer: The EC50 was > 25 µM.

Question: How did the EC50 turn out when O=C(Nc1ccc(-c2nc3ccccc3s2)cc1)c1c(F)cccc1F [Compound 79, N-(4-Benzothiazol-2-yl-phenyl)-2,6-difluoro-benzamide] was run?
Answer: Its EC50 is > 25 µM.

Question: CC(=O)Nc1ccc(C(=O)Nc2ccc(-c3nc4ccc(C)cc4s3)cc2)cc1 [Compound 80, 4-Acetylamino-N-[4-(6-methyl-benzothiazol-2-yl)-phenyl]-benzamide] was tested. Which EC50 did it give?
Answer: The EC50 was > 25 µM.

Question: With COC(=O)c1cc(C(=O)Nc2ccc(-c3nc4ccc(C)cc4s3)cc2)cc([N+](=O)O)c1 [Compound 81, N-[4-(6-Methyl-benzothiazol-2-yl)-phenyl]-5-nitro-isophthalamic acid methyl ester] as the molecule, how does the EC50 read?
Answer: The EC50 was > 25 µM.

Question: For N#Cc1ccc(C(=O)Nc2ccc(Cl)c(-c3nc4ccccc4s3)c2)c(F)c1 [Compound 82, N-(3-Benzothiazol-2-yl-4-chloro-phenyl)-4-cyano-2-fluoro-benzamide], which EC50 is on record?
Answer: The EC50 was > 25 µM.

Question: O=C(Nc1cccc(-c2nc3ccccc3s2)c1)c1ccccc1I [Compound 83, N-(3-Benzothiazol-2-yl-phenyl)-2-iodo-benzamide] was tested. Which EC50 did it give?
Answer: Its EC50 is > 25 µM.

Question: How did the EC50 turn out when COc1ccc(C(=O)Nc2cccc(-c3nc4ccccc4s3)c2)cc1[N+](=O)[O-] [Compound 84, N-(3-Benzothiazol-2-yl-phenyl)-4-methoxy-3-nitro-benzamide] was run?
Answer: Its EC50 is > 25 µM.

Question: How did the EC50 turn out when Cc1cc(C(=O)Nc2ccc(-c3nc4ccccc4s3)cc2)ccc1[N+](=O)[O-] [Compound 85, N-(4-Benzothiazol-2-yl-phenyl)-3-methyl-4-nitro-benzamide] was run?
Answer: The EC50 was > 25 µM.

Question: With COc1cc(OC)cc(C(=O)Nc2ccc(Cl)c(-c3nc4ccccc4s3)c2)c1 [Compound 86, N-(3-Benzothiazol-2-yl-4-chloro-phenyl)-3,5-dimethoxy-benzamide] as the molecule, how does the EC50 read?
Answer: Its EC50 is > 25 µM.

Question: Cc1ccc(C(=O)Nc2ccc(-c3nc4ccc(C)cc4s3)cc2)c(Cl)c1 [Compound 87, 2-Chloro-4-methyl-N-[4-(6-methyl-benzothiazol-2-yl)-phenyl]-benzamide] was tested. Which EC50 did it give?
Answer: Its EC50 is > 25 µM.

Question: With COc1ccc(C(=O)Nc2ccc(-c3nc4ccccc4s3)cc2)cc1[N+](=O)[O-] [Compound 88, N-(4-Benzothiazol-2-yl-phenyl)-4-methoxy-3-nitro-benzamide] as the molecule, how does the EC50 read?
Answer: The EC50 was > 25 µM.

Question: Which EC50 does the source give for Cc1ccc(C(=O)Nc2cccc(-c3nc4ccccc4s3)c2)cc1 [Compound 89, N-(3-Benzothiazol-2-yl-phenyl)-4-methyl-benzamide] here?
Answer: Its EC50 is > 25 µM.

Question: With O=C(Nc1cccc(-c2nc3ccccc3s2)c1)c1ccc(F)cc1 [Compound 90, N-(3-Benzothiazol-2-yl-phenyl)-4-fluoro-benzamide] as the molecule, how does the EC50 read?
Answer: Its EC50 is > 25 µM.

Question: For COc1ccc(C(=O)Nc2cccc(-c3nc4ccccc4s3)c2)cc1 [Compound 91, N-(3-Benzothiazol-2-yl-phenyl)-4-methoxy-benzamide], which EC50 is on record?
Answer: The EC50 was > 25 µM.

Question: For Cc1ccccc1C(=O)Nc1cccc(-c2nc3ccccc3s2)c1 [Compound 92, N-(3-Benzothiazol-2-yl-phenyl)-2-methyl-benzamide], which EC50 is on record?
Answer: Its EC50 is > 25 µM.

Question: With O=C(Nc1ccccc1-c1nc2ccccc2s1)c1ccccc1F [Compound 93, N-(2-Benzothiazol-2-yl-phenyl)-2-fluoro-benzamide] as the molecule, how does the EC50 read?
Answer: The EC50 was > 25 µM.

Question: Which EC50 does the source give for CCN(CC)S(=O)(=O)c1ccc(C(=O)Nc2ccccc2-c2nc3ccccc3s2)cc1 [Compound 94, N-(2-Benzothiazol-2-yl-phenyl)-4-diethylsulfamoyl-benzamide] here?
Answer: The EC50 was > 25 µM.

Question: Which EC50 does the source give for COc1cccc(OC)c1C(=O)Nc1ccc(-c2nc3ccccc3s2)cc1 [Compound 95, N-(4-Benzothiazol-2-yl-phenyl)-2,6-dimethoxy-benzamide] here?
Answer: Its EC50 is > 25 µM.

Question: How did the EC50 turn out when O=C(Nc1cccc(-c2nc3ccccc3s2)c1)c1ccc(N2CCCC2)c([N+](=O)[O-])c1 [Compound 96, N-(3-Benzothiazol-2-yl-phenyl)-3-nitro-4-pyrrolidin-1-yl-benzamide] was run?
Answer: Its EC50 is > 25 µM.

Question: For O=C(Nc1ccccc1-c1nc2ccccc2s1)c1cccc(Cl)c1Cl [Compound 97, N-(2-Benzothiazol-2-yl-phenyl)-2,3-dichloro-benzamide], which EC50 is on record?
Answer: Its EC50 is > 25 µM.

Question: For O=C(Nc1ccccc1-c1nc2ccccc2s1)c1ccc([N+](=O)[O-])cc1Cl [Compound 98, N-(2-Benzothiazol-2-yl-phenyl)-2-chloro-4-nitro-benzamide], which EC50 is on record?
Answer: Its EC50 is > 25 µM.

Question: For Cc1ccc(C(=O)Nc2ccccc2-c2nc3ccccc3s2)cc1C [Compound 99, N-(2-Benzothiazol-2-yl-phenyl)-3,4-dimethyl-benzamide], which EC50 is on record?
Answer: Its EC50 is > 25 µM.

Question: COc1c(Cl)cc(Cl)cc1C(=O)Nc1ccccc1-c1nc2ccccc2s1 [Compound 100, N-(2-Benzothiazol-2-yl-phenyl)-3,5-dichloro-2-methoxy-benzamide] was tested. Which EC50 did it give?
Answer: The EC50 was > 25 µM.

Question: CCC(C)Oc1ccc(C(=O)Nc2ccccc2-c2nc3ccccc3s2)cc1 (centres unmarked) [Compound 101, N-(2-Benzothiazol-2-yl-phenyl)-4-sec-butoxy-benzamide] was tested. Which EC50 did it give?
Answer: Its EC50 is > 25 µM.

Question: For O=C(Nc1ccccc1-c1nc2ccccc2s1)c1cc(Br)ccc1Cl [Compound 102, N-(2-Benzothiazol-2-yl-phenyl)-5-bromo-2-chloro-benzamide], which EC50 is on record?
Answer: The EC50 was > 25 µM.

Question: With O=C(Nc1ccccc1-c1nc2ccccc2s1)c1cccc(I)c1 [Compound 103, N-(2-Benzothiazol-2-yl-phenyl)-3-iodo-benzamide] as the molecule, how does the EC50 read?
Answer: Its EC50 is > 25 µM.

Question: COc1cc(OC)cc(C(=O)Nc2ccccc2-c2nc3ccccc3s2)c1 [Compound 104, N-(2-Benzothiazol-2-yl-phenyl)-3,5-dimethoxy-benzamide] was tested. Which EC50 did it give?
Answer: The EC50 was > 25 µM.

Question: How did the EC50 turn out when O=C(Nc1ccccc1-c1nc2ccccc2s1)c1ccc(-c2ccccc2)cc1 [Compound 105, Biphenyl-4-carboxylic acid (2-benzothiazol-2-yl-phenyl)-amide] was run?
Answer: The EC50 was > 25 µM.

Question: CCCCOc1cccc(C(=O)Nc2ccccc2-c2nc3ccccc3s2)c1 [Compound 106, N-(2-Benzothiazol-2-yl-phenyl)-3-butoxy-benzamide] was tested. Which EC50 did it give?
Answer: Its EC50 is > 25 µM.

Question: For Cc1ccc(C(=O)Nc2ccccc2-c2nc3ccccc3s2)cc1[N+](=O)[O-] [Compound 107, N-(2-Benzothiazol-2-yl-phenyl)-4-methyl-3-nitro-benzamide], which EC50 is on record?
Answer: The EC50 was > 25 µM.

Question: How did the EC50 turn out when COc1c(Cl)cc(C(=O)Nc2ccccc2-c2nc3ccccc3s2)cc1Cl [Compound 108, N-(2-Benzothiazol-2-yl-phenyl)-3,5-dichloro-4-methoxy-benzamide] was run?
Answer: Its EC50 is > 25 µM.

Question: For O=C(Nc1ccccc1-c1nc2ccccc2s1)c1cccc2c(Cl)cccc12 [Compound 109, 5-Chloro-naphthalene-1-carboxylic acid (2-benzothiazol-2-yl-phenyl)-amide], which EC50 is on record?
Answer: Its EC50 is > 25 µM.

Question: For O=C(Nc1ccccc1-c1nc2ccccc2s1)c1cccc(F)c1 [Compound 110, N-(2-Benzothiazol-2-yl-phenyl)-3-fluoro-benzamide], which EC50 is on record?
Answer: Its EC50 is > 25 µM.

Question: For O=C(Nc1ccccc1-c1nc2ccccc2s1)c1cccc(OCc2ccccc2)c1 [Compound 111, N-(2-Benzothiazol-2-yl-phenyl)-3-benzyloxy-benzamide], which EC50 is on record?
Answer: The EC50 was > 25 µM.

Question: Which EC50 does the source give for COc1ccccc1C(=O)Nc1ccccc1-c1nc2ccccc2s1 [Compound 112, N-(2-Benzothiazol-2-yl-phenyl)-2-methoxy-benzamide] here?
Answer: Its EC50 is > 25 µM.

Question: COc1ccc(C(=O)Nc2ccccc2-c2nc3ccccc3s2)cc1[N+](=O)[O-] [Compound 113, N-(2-Benzothiazol-2-yl-phenyl)-4-methoxy-3-nitro-benzamide] was tested. Which EC50 did it give?
Answer: The EC50 was > 25 µM.

Question: With Cc1c(C(=O)Nc2ccccc2-c2nc3ccccc3s2)cccc1[N+](=O)[O-] [Compound 114, N-(2-Benzothiazol-2-yl-phenyl)-2-methyl-3-nitro-benzamide] as the molecule, how does the EC50 read?
Answer: The EC50 was > 25 µM.

Question: For Cc1cc(C(=O)Nc2ccccc2-c2nc3ccccc3s2)ccc1[N+](=O)[O-] [Compound 115, N-(2-Benzothiazol-2-yl-phenyl)-3-methyl-4-nitro-benzamide], which EC50 is on record?
Answer: Its EC50 is > 25 µM.

Question: For O=C(Nc1ccccc1-c1nc2ccccc2s1)c1ccccc1Br [Compound 116, N-(2-Benzothiazol-2-yl-phenyl)-2-bromo-benzamide], which EC50 is on record?
Answer: Its EC50 is > 25 µM.

Question: Which EC50 does the source give for Cc1ccc(C(=O)Nc2cc(-c3nc4ccccc4s3)ccc2C)c(C)c1 [Compound 117, N-(5-Benzothiazol-2-yl-2-methyl-phenyl)-2,4-dimethyl-benzamide] here?
Answer: Its EC50 is > 25 µM.
